Assays:
Test in all cases: relative viability (nuclei count vs DMSO), 5 days (fraction); higher = more cells survive
Neratinib + Trametinib = compound: CCOc1cc2ncc(C#N)c(Nc3ccc(OCc4ccccn4)c(Cl)c3)c2cc1NC(=O)/C=C/CN(C)C [Neratinib] + CC(=O)Nc1cccc(-n2c(=O)n(C3CC3)c(=O)c3c(Nc4ccc(I)cc4F)n(C)c(=O)c(C)c32)c1 [Trametinib] (partner 0.02 µM)
Procedure, shortened: (§1)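 Dosing by pin tool came one day after lung cancer cell lines were seeded in 1536-well plates, using either one drug or a fixed anchor-drug dose plus five library-drug doses (not always all listed) in √10 steps. After 5 days, nuclei were counted on 4× images. Relative viability is treated-well nuclei count divided by vehicle-well nuclei count, and values are medians of duplicate plates.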

Neratinib + Olaparib = compound: CCOc1cc2ncc(C#N)c(Nc3ccc(OCc4ccccn4)c(Cl)c3)c2cc1NC(=O)/C=C/CN(C)C [Neratinib] + O=C(c1cc(Cc2n[nH]c(=O)c3ccccc23)ccc1F)N1CCN(C(=O)C2CC2)CC1 [Olaparib] (partner 8 µM)
Procedure, shortened: as §1

Neratinib + Phenformin = compound: CCOc1cc2ncc(C#N)c(Nc3ccc(OCc4ccccn4)c(Cl)c3)c2cc1NC(=O)/C=C/CN(C)C [Neratinib] + N=C(N)NC(=N)NCCc1ccccc1 [Phenformin] (partner 250 µM)
Procedure, shortened: as §1

Neratinib = compound: CCOc1cc2ncc(C#N)c(Nc3ccc(OCc4ccccn4)c(Cl)c3)c2cc1NC(=O)/C=C/CN(C)C [Neratinib]
Procedure, shortened: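 Cells of lung cancer lines were placed in 1536-well plates and kept overnight at 37 °C. Pinning then delivered five library-drug doses (not always all listed), spaced by √10, onto plates anchored with vehicle, and the cells were left 5 days without changing medium. One step fixed, permeabilised and stained them with Hoechst, and MetaXpress counted nuclei in 4× images. Viability, as a median over plates, is treated-well nuclei divided by vehicle-well nuclei, with acceptance only at control CV below 25% and at least one doubling.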

Cell Line	relative viability (Neratinib + Trametinib; first compound 0.01 µM)	relative viability (Neratinib + Trametinib; first compound 0.03162 µM)	relative viability (Neratinib + Trametinib; first compound 0.1 µM)	relative viability (Neratinib + Trametinib; first compound 0.3162 µM)	relative viability (Neratinib + Trametinib; first compound 1 µM)	relative viability (Neratinib + Olaparib; first compound 0.01 µM)	relative viability (Neratinib + Olaparib; first compound 0.03162 µM)	relative viability (Neratinib + Olaparib; first compound 0.1 µM)	relative viability (Neratinib + Olaparib; first compound 0.3162 µM)	relative viability (Neratinib + Olaparib; first compound 1 µM)	relative viability (Neratinib + Phenformin; first compound 0.01 µM)	relative viability (Neratinib + Phenformin; first compound 0.03162 µM)	relative viability (Neratinib + Phenformin; first compound 0.1 µM)	relative viability (Neratinib + Phenformin; first compound 0.3162 µM)	relative viability (Neratinib + Phenformin; first compound 1 µM)	relative viability (Neratinib; 0.01 µM)	relative viability (Neratinib; 0.03162 µM)	relative viability (Neratinib; 0.1 µM)	relative viability (Neratinib; 0.3162 µM)	relative viability (Neratinib; 1 µM)
HCC-827	0.426	0.545	0.561	0.226	0.153	0.624	0.763	0.665	0.272	0.107	0.42	0.411	0.403	0.23	0.151	1.09	1.13	0.982	0.679	0.183
ChaGo-K-1	0.886	0.941	0.754	0.882	0.845	0.412	0.469	0.331	0.392	0.401	0.466	0.518	0.482	0.432	0.401	0.995	1.12	0.896	0.865	0.971
NCI-H23	0.397	0.401	0.35	0.342	0.251	0.283	0.284	0.317	0.328	0.314	0.959	0.905	0.827	0.731	0.597	1.1	1.15	0.811	0.922	0.739
NCI-H2170	0.873	0.862	0.631	0.178	0.171	0.627	0.49	0.32	0.151	0.158	0.419	0.418	0.269	0.268	0.216	0.995	0.994	0.62	0.26	0.24
EMC-BAC-2	0.949	0.885	0.855	0.793	0.671	0.521	0.481	0.501	0.528	0.45	0.586	0.554	0.505	0.451	0.377	1.32	1.01	0.977	0.935	0.722
NCI-H522	0.756	0.923	0.758	0.599	0.543	0.598	0.5	0.558	0.573	0.459	0.747	0.619	0.663	0.548	0.604	0.982		0.876	0.692	0.59
NCI-H2347	0.264	0.317	0.262	0.248	0.266		0.59	0.545	0.564	0.455	0.416	0.565		0.338	0.244	1.07	1.08	0.904	1.08	
UMC-11	0.621	0.879	0.673	0.666	0.686	0.362	0.388	0.33	0.361	0.299	0.333	0.328	0.32	0.293	0.275	0.901	1.14	0.748	0.898	0.832
NCI-H358	0.119	0.118	0.0959	0.121	0.125	0.552	0.569	0.409	0.238	0.162	0.28	0.266	0.164	0.147	0.101	0.949	0.792	0.556	0.275	0.242
LC-2-ad	0.98	0.933	0.805	0.845	0.85	0.777		0.651	0.756	0.785		0.578	0.557	0.421	0.45	1.01	1.03	0.915	0.738	0.797
HCC-15	0.329	0.402	0.362	0.349	0.325	0.697	0.819	0.673	0.667	0.659	0.537	0.576	0.456	0.368	0.349	1.04	1.15	0.932	0.878	0.886
NCI-H3122	0.29	0.214	0.2	0.227	0.175	0.609	0.699	0.571	0.617	0.587	0.366	0.407	0.317	0.35	0.187		1.02	0.931	0.991	0.5
LXF-289	0.739	0.733	0.674	0.685	0.536	1.12	1.28	0.931	1.06	0.889	0.533	0.537	0.461	0.476	0.435	1.03	1.07	0.948	1.05	1.01
CAL-12T	0.322	0.322	0.236	0.254	0.223	0.698	0.707	0.709	0.406	0.343	0.55	0.572	0.488	0.254	0.179	1.06	1.09	0.868	0.631	0.301
